Test [1] addresses T1, Neuropeptide Y receptor type 5 (Mus musculus, UniProt O70342).
T1 sequence (O70342 whole entry): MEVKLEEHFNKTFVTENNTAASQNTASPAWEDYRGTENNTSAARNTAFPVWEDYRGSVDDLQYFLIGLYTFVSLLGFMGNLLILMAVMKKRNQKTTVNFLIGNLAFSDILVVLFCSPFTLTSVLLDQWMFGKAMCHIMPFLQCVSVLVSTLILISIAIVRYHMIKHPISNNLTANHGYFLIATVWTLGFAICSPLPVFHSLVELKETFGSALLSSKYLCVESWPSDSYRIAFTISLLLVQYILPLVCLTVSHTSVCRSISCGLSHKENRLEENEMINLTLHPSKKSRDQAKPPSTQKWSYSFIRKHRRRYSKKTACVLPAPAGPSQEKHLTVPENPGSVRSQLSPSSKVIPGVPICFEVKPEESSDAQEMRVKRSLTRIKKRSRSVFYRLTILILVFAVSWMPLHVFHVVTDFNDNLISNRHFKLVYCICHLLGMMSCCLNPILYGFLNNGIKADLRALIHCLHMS

For test [2], the target named is T2, Neuropeptide Y receptor type 1 (Mus musculus, UniProt Q04573).
T2 sequence (Q04573 whole entry): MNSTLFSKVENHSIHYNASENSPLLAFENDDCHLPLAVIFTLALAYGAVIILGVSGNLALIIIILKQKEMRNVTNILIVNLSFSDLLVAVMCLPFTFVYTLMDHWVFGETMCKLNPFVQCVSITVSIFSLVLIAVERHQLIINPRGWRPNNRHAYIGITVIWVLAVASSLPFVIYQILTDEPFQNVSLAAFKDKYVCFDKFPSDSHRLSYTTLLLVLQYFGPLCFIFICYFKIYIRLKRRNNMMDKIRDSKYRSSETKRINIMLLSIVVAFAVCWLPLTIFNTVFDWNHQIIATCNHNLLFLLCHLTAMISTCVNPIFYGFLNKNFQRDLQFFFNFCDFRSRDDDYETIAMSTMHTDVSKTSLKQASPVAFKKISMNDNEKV

Usually Ki stands for a measure of affinity in units of concentration, obtained from inhibition or displacement. Lower therefore signals a stronger hold on the target. With `CC[C@H](C)[C@H](NC(=O)[C@H](Cc1ccc(O)cc1)NC(=O)[C@H](CCCNC(=N)N)NC(=O)[C@H](CCCNC(=N)N)NC(=O)[C@H](CC(C)C)NC(=O)[C@H](CC(=O)O)NC(=O)[C@H](C)NC(=O)[C@H](C)NC(=O)[C@H](Cc1ccc(O)cc1)NC(=O)[C@H](CCC(N)=O)NC(=O)[C@H](C)NC(=O)[C@H](CCSC)NC(=O)[C@H](CCC(N)=O)NC(=O)[C@H](CCC(=O)O)NC(=O)[C@@H]1CCCN1C(=O)[C@@H](NC(=O)[C@H](C)NC(=O)[C@H](CC(N)=O)NC(=O)[C@H](CC(=O)O)NC(=O)CNC(=O)[C@@H]1CCCN1C(=O)[C@H](Cc1ccc(O)cc1)NC(=O)[C@@H](NC(=O)[C@@H]1CCCN1C(=O)[C@H](CCC(=O)O)NC(=O)[C@H](CC(C)C)NC(=O)[C@@H]1CCCN1C(=O)[C@H](C)N)C(C)C)[C@@H](C)O)C(=O)N[C@@H](CC(N)=O)C(=O)N[C@@H](CCSC)C(=O)N[C@@H](CC(C)C)C(=O)N[C@H](C(=O)N[C@@H](CCCNC(=N)N)C(=O)N1CCC[C@H]1C(=O)N[C@@H](CCCNC(=N)N)C(=O)N[C@@H](Cc1ccc(O)cc1)C(N)=O)[C@@H](C)O` [CAS_59763-91-6], the Ki was 1000 nM in test [1] and 122 nM in test [2].
